# Test results published in US10718006B2, “Methods for detecting beta-lactamase-producing bacteria” (priority 2015, dated 2020).
# Tests used:
# Assay in all cases: Electrochemical assay with substrate HMRZ-86, liquid cultures
# Format in all cases: cell-based
# S. marcescens strain = details: S. marcescens 11787, Hyperproduced cephalosporinase; liquid culture, 30 min with HMRZ-86
# Protocol: (§1) Each cryopreserved strain is cultured in 10 mL of LB medium at 37° C. until the stationary phase is obtained.
# (§2) A volume of 50 μL of culture liquid is incubated in the presence of 50 μL of a solution of HMRZ-86 at 0.5 mM in PBS at 37° C. with stirring for 30 min. 40 μL of the reaction mixture is taken and transferred onto the surface of a screen-printed carbon sensor (Dropsens, DRP-110) connected beforehand to a STAT 8000P portable potentiostat (Dropsens) with power supply from the computer's USB port and controlled by the DropView 8400 software. Linear voltammetry measurements are carried out by linear potential scanning from −0.1 V to 1.2 V at a rate of 50 mV·s^−1. The peak current appearing in the potential range +0.2 to +0.55 V vs. Ag/AgCl, associated with hydrolysis of the beta-lactam ring of HMRZ-86, is selected as the analytical response. If the intensity of the peak (i) has a value above 500 nA, the sample contains a strain capable of degrading the C3Gs.
# (§3) The electrochemical method of the invention was applied to analysis of a panel of 40 strains producing various β-lactamases and was compared with the R-Lacta™ Test (Biorad), the principle of which is based on qualitative colorimetric detection of the C3G-resistant strains. The results presented in Table 7 were obtained after 30 min of incubation of the bacteria with the substrate HMRZ-86 for both methods. Based on the interpretation of the results proposed by the supplier, the R-Lacta™ Test allows identification of the C3G-resistant strains with a level of agreement of 68%, whereas a level of agreement of 95% was obtained with the electrochemical method of the invention. In contrast to colorimetry, amperometry offers the advantage of measuring a numerical value of current which, on the one hand, avoids any subjective interpretation of the result (intermediate colour), and on the other hand allows traceability of the result.
# (§4) Table 7: Comparison of the results obtained with the electrochemical method of the invention for liquid cultures with those obtained with the R-Lacta™ Test implemented according to the supplier's recommendations with isolated colonies. In both cases, the readings were taken after incubation with the substrate HMRZ-86 for 30 min.
# E. cloacae strains = details: liquid culture, 30 min with HMRZ-86
# Protocol: as §1, §2, §3, §4
# K. oxytoca strain = details: K. oxytoca 11779, Low-level penicillinase; liquid culture, 30 min with HMRZ-86
# Protocol: as §1, §2, §3, §4
# C. freundii strain = details: C. freundii 11745, Inducible cephalosporinase; liquid culture, 30 min with HMRZ-86
# Protocol: as §1, §2, §3, §4
# [1] = system: E. coli strains producing various β-lactamases; details: liquid culture, 30 min with HMRZ-86
# Protocol: as §1, §2, §3, §4
# P. mirabilis strains = details: liquid culture, 30 min with HMRZ-86
# Protocol: as §1, §2, §3, §4
# E. aerogenes strains = details: liquid culture, 30 min with HMRZ-86
# Protocol: as §1, §2, §3, §4
# K. pneumoniae strains = details: liquid culture, 30 min with HMRZ-86
# Protocol: as §1, §2, §3, §4
compound,measurement,setting,value
"CC(C)(ON=C(C(=O)N[C@@H]1C(=O)N2C(C(=O)O)=C(C=Cc3ccc([N+](=O)[O-])cc3[N+](=O)[O-])CS[C@H]12)c1csc(N)n1)C(=O)O.O=C(O)C(F)(F)F [HMRZ-86, (6R,7R)-trifluoroacetate 7-[[2-(2-amino-4-thiazolyl)-2-[(1-carboxy-1-methylethoxy)imino]acetyl]amino]-1-aza-3-[2-(2,4-dinitrophenyl)ethenyl]-8-oxo-5-thiabicyclo[4.2.0]oct-2-ene-2-carboxylic acid]",Electrochemical assay Intensity,S. marcescens strain,3922 nA
same,Electrochemical assay Intensity,"E. cloacae strains; E. cloacae 11784, Hyperproduced cephalosporinase",569 nA
same,Electrochemical assay Intensity,"E. cloacae strains; E. cloacae 11790, Hyperproduced cephalosporinase",686 nA
same,Electrochemical assay Intensity,"E. cloacae strains; E. cloacae 11794, Hyperproduced cephalosporinase",842 nA
same,Electrochemical assay Intensity,K. oxytoca strain,412 nA
same,Electrochemical assay Intensity,C. freundii strain,369 nA
same,Electrochemical assay Intensity,"[1]; E. coli 11746, Hyperproduced penicillinase",380 nA
same,Electrochemical assay Intensity,"[1]; E. coli 11748, Inducible cephalosporinase",424 nA
same,Electrochemical assay Intensity,"[1]; E. coli 11755, Carbapenemase OXA-48 - CTX-M",3509 nA
same,Electrochemical assay Intensity,"[1]; E. coli 11757, Carbapenemase OXA-48",625 nA
same,Electrochemical assay Intensity,"[1]; E. coli 11765, Hyperproduced penicillinase",323 nA
same,Electrochemical assay Intensity,"[1]; E. coli 11766, Inducible cephalosporinase",408 nA
same,Electrochemical assay Intensity,"[1]; E. coli 11776, Inducible cephalosporinase",446 nA
same,Electrochemical assay Intensity,"[1]; E. coli 11780, Hyperproduced penicillinase",425 nA
same,Electrochemical assay Intensity,"[1]; E. coli 11781, Low-level penicillinase",377 nA
same,Electrochemical assay Intensity,"[1]; E. coli 11791, Hyperproduced cephalosporinase",816 nA
same,Electrochemical assay Intensity,"[1]; E. coli 11810, ESBL CTX-M-1",2544 nA
same,Electrochemical assay Intensity,"[1]; E. coli 11817, ESBL CTX-M-2",1472 nA
same,Electrochemical assay Intensity,"[1]; E. coli 11818, ESBL CTX-M-1",3583 nA
same,Electrochemical assay Intensity,"[1]; E. coli 11820, ESBL SHV-12",1249 nA
same,Electrochemical assay Intensity,"[1]; E. coli 11828, ESBL CTX-M-27",2640 nA
same,Electrochemical assay Intensity,"[1]; E. coli 11833, ESBL CTX-M-9",2455 nA
same,Electrochemical assay Intensity,"[1]; E. coli 11834, ESBL TEM-12",418 nA
same,Electrochemical assay Intensity,"[1]; E. coli 11863, ESBL CTX-M-14",2544 nA
same,Electrochemical assay Intensity,"[1]; E. coli K12, Beta-lactamase negative",302 nA
same,Electrochemical assay Intensity,"P. mirabilis strains; P. mirabilis 11747, Beta-lactamase negative",322 nA
same,Electrochemical assay Intensity,"P. mirabilis strains; P. mirabilis 11768, Low-level penicillinase",233 nA
same,Electrochemical assay Intensity,"E. aerogenes strains; E. aerogenes 11772, Inducible cephalosporinase",362 nA
same,Electrochemical assay Intensity,"E. aerogenes strains; E. aerogenes 11775, Hyperproduced cephalosporinase",501 nA
same,Electrochemical assay Intensity,"E. aerogenes strains; E. aerogenes 11796, ESBL TEM 24",1249 nA
same,Electrochemical assay Intensity,"K. pneumoniae strains; K. pneumoniae 11754, Carbapenemase OXA-48 - CTX-M",3520 nA
same,Electrochemical assay Intensity,"K. pneumoniae strains; K. pneumoniae 11762, Carbapenemase OXA-48",476 nA
same,Electrochemical assay Intensity,"K. pneumoniae strains; K. pneumoniae 11770, Low-level penicillinase",365 nA
same,Electrochemical assay Intensity,"K. pneumoniae strains; K. pneumoniae 11812, ESBL CTX-M-15",3494 nA
same,Electrochemical assay Intensity,"K. pneumoniae strains; K. pneumoniae 11839, Carbapenemase KPC-2",1567 nA
same,Electrochemical assay Intensity,"K. pneumoniae strains; K. pneumoniae 11842, Carbapenemase NDM-1",1257 nA
